Laboratory results reported in paper PMC4007584 (Journal of biomolecular screening, 2013).
Counter-ions that a name gives are not always drawn.

Assays:
[1] = biological target: catalytic domain of PDE10A2 (Homo sapiens, UniProt Q9Y233); experiment: PDE10A calorimetric activity assay; format: biochemical
PDE10A = conditions: literature; cited from earlier work
R6/2 mice = conditions: IP beginning at 4 weeks of age; cited from earlier work

Sequence of catalytic domain of PDE10A2 (Q9Y233 715-1055 limits assumed): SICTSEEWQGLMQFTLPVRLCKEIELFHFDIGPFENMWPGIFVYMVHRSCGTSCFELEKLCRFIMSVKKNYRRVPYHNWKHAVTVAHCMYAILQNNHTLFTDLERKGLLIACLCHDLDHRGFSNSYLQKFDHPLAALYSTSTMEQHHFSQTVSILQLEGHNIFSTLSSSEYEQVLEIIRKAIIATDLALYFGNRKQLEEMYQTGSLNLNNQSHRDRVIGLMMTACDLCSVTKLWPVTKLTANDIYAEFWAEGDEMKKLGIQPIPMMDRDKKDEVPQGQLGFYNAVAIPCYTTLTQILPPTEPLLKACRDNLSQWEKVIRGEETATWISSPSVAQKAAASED

Row | Structure (SMILES) | Ki [1] | inhibition mechanism, PDE10A [1] | Ligand Efficiency PDE10A ([1]; Table 1, from enthalpy array KI) | IC50 (PDE10A) | reduction of the loss of striatal size (R6/2 mice)
1 | CC(C)Cn1c(=O)n(C)c(=O)c2[nH]cnc21 [IBMX, 3-isobutyl-1-methylxanthine] | 17 ± 6.6 µM | competitive inhibition | 0.41 kcal mol^−1 HA^−1 | 11 µM | –
2 | COc1ccc(Cc2nccc3cc(OC)c(OC)cc23)cc1OC [Papaverine, papaverine hydrochloride] | – | competitive inhibition | – | 0.095 µM | –
3 | CC(=O)CCCCn1c(=O)c2c(ncn2C)n(C)c1=O [Pentoxifylline, pentoxifylline] | 200 ± 60 µM | competitive inhibition | – | – | –
4 | FC(F)(F)Cn1cc(-c2ccncc2)c(-c2ccc(OCc3ccc4ccccc4n3)cc2)n1 [TP-10] | – | – | – | – | 50%
